Assays:
[1] = tested on: MUTZ-3 cells; assay: PLS score plot of proteomic response, fourth study; assay type: cell-based, human; settings: FIG. 3, ANOVA filtered protein list
Description: In the fourth study (40-002—8) Mutz-3 cells were incubated with 2 contact sensitizer (120 μM cinnamic aldehyde, 4 μM DNCB), 1 respiratory sensitizer (150 μM TMA), 1 irritant (200 μM SDS) and 1 controls (untreated).
A preferred method for classification of chemicals is employing partial least squares regression analysis (PLS). PLS discriminant analysis identifies the most important classifiers from the list of interest. A model was built using the response variables (y) highlighted in red and the ANOVA filtered proteins as predictors (x). The first PLS components (x-axis) was plotted against the second PLS component (y-axis) and separated the biomarkers having a role in classifying the three experimental groups “control”, “irritant” and sensitizer”.
In the score plot each point represents one 1 sample. Based on the ANOVA filtered protein list samples a good separation between control, sensitizer and irritant treated samples was achieved.

[2] = tested on: dendritic cell lines; settings: Mitjans et al. 2009; cited from earlier work
[3] = tested on: Myeloperoxidase (MPO); assay: Myeloperoxidase ELISA in supernatant of Mutz-3 cells; assay type: cell-based, human; settings: FIG. 4
Description: (§1) As an alternative approach to find predictive markers for sensitizing potential we explored the potential of cell culture supernatants as a source of markers for chemical safety by adopting a more targeted approach using commercially available immunoassays to measure the levels of three known inflammatory markers. The three proteins to be measured by ELISA were selected on the basis of a review of literature references to secreted inflammatory protein response to chemical sensitizer. Cells were cultured as described in Example 1 and the spent medium removed for direct analysis by ELISA. All kits were used in accordance with manufacturer's instructions.
MPO is a peroxidase enzyme which is stored in lysosomes and released during inflammation Myeloperoxidase was measured by ELISA (Assay-Designs) (FIG. 4).

[4] = tested on: Calprotectin (S100A8/S100A9); assay: Calprotectin immunoassay in supernatant of Mutz-3 cells; assay type: cell-based, human; settings: FIG. 5
Description: as §1
Calprotectin is heterodimer of S100A8/S100A9 was measured in supernatant of Mutz-3 cells by a commercially available immunoassay (Immundiagnostik AG, Bensheim, Germany) (FIG. 5). Calprotectin is actively secreted by phagocytes in response to stress and binds to Toll-like receptor 4 (TLR4). Toll-like receptors play an important role in the innate immune system and activation of TLR4 by calprotectin further amplifies inflammation (Ehrchen et al. 2009). TLR4 and interleukin 12 double knock-out mice, show a marked decrease of DC-sensitization by a broad range of different sensitizers including 2,4,6-trinitro-1-chlorobenzene (TNCB), oxazolone, and fluorescein isothiocyanate (Martin et al. 2008). […]

| SMILES | relative distance of treated samples from control in PLS score plot [1] | response of the IL-8 assay [2] | MPO release into supernatant of Mutz-3 cells [3] | S100A8/S100A9 (calprotectin) levels in supernatant of Mutz-3 cells [4] |
| --- | --- | --- | --- | --- |
| O=C(O)c1ccc2c(c1)C(=O)OC2=O [TMA, Trimellitic anhydride] | smaller distance to control sample | fails to respond | does not activate this pathway | – |
| O=[N+]([O-])c1ccc(Cl)c([N+](=O)[O-])c1 [DNCB, 1-chloro-2,4-dinitrobenzene] | greatest relative distance from the control | – | activates an inflammatory pathway involving release of the peroxidase enzyme MPO | modulated |
